These results are taken from PubChem BioAssay (NCI).

What all share (assay): DTP human tumour cell line panel, 48 h
Assay [1] relates to NCI-H226 lung.
In assay [2] the test system is HS 578T breast.
For assay [3], the system named is NCI/ADR-RES ovarian.
The test system of assay [4] is UACC-62 melanoma.
Assay [5] deals with NCI-H23 lung.
The subject of assay [6] is KM12 colon.
The subject of assay [7] is RXF 393 renal.
The subject of assay [8] is SR leukemia.
Assay [9] deals with CAKI-1 renal.
The test system of assay [10] is EKVX NSCLC.

The structures appear in SMILES notation.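 Five compound concentrations were applied to cells in 96-well plates for 48 hours; endpoints were derived by simple linear interpolation of the resulting dose-response curve. GI50 marks 50% less growth. The concentration for full growth arrest is given as TGI.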

The term TGI denotes the concentration giving total growth inhibition. High values mean less potent growth arrest, low ones more potent growth arrest. `CSC[C@H](NC(=O)COc1cccc2cnccc12)C(=O)NC(Cc1ccccc1)C(O)C(=O)N1CSC[C@H]1C(=O)NC(C)(C)C` (stereo partly drawn): the TGI in [1], in [2], in [3], in assay [4], in [5] and in assay [6] was greater than 100 µM in each case. The TGI in assay [7] was 99.8 µM; in [8] it was greater than 100 µM.
Consider `CCCCCCCCc1cc2c(O)c(c1)Cc1cc(CCCCCCCC)cc(c1O)Cc1cc(CCCCCCCC)cc(c1O)Cc1cc(CCCCCCCC)cc(c1O)Cc1cc(CCCCCCCC)cc(c1O)Cc1cc(CCCCCCCC)cc(c1O)C2`, for which the TGI in [9], in [4], in assay [5], in assay [6] and in [8] was greater than 100 µM throughout.
For the compound `C[N+](C)(C)CC(=O)N/N=C(/Cc1cc(=O)oc2cc(O)ccc12)C(=O)Nc1ccc(Cl)cc1`, the total growth inhibition concentration (TGI) in assay [9], in [10], in assay [4], in assay [5], in assay [6] and in assay [7] was greater than 100 µM throughout. Besides, in [8], the concentration for total growth inhibition (TGI) was greater than 100 µM.
`Cc1cc2c(cc1C)[n+](=O)cc(C(=O)C/C(=N/NC(=S)NN)C(=O)Nc1cccc(C(F)(F)F)c1)n2[O-]`: the TGI in assay [1], in assay [9], in assay [10], in assay [4], in assay [5] and in [6] was greater than 100 µM in each case. The same compound returned a TGI in [8] greater than 100 µM.
For the compound `O=C1C/C(Br)=C\c2ccccc2-c2ccccc21`, the TGI was 8.22 µM in assay [1]; 5.86 µM in [9]; 21.8 µM in assay [10]; 5.09 µM in assay [4]; 9.56 µM in assay [5]; 11.5 µM in assay [6]. Moreover, the total growth inhibition concentration (TGI) amounted to 3.04 µM in [7] and 2.73 µM in assay [8].
In general, GI50 refers to the concentration at which growth is held to half of that of the control. On to `CC[C@]1(O)C[C@H]2CN(CCc3c([nH]c4ccccc34)C(C(=O)OC)(c3cc4c(cc3OC)N(C)[C@H]3[C@@](O)(C(=O)OC)[C@H](OC(C)=O)[C@]5(CC)[C@@H]6C[C@@H]6CN6CC[C@]43[C@@H]65)C2)C1` (stereo partly drawn), for which the concentration for 50% growth inhibition (GI50) in [1] was 0.0231 µM; in assay [2] it was 0.00331 µM; in assay [9], 0.0345 µM; in assay [10], 0.00688 µM; in assay [3], 0.101 µM; in assay [4], 0.0022 µM. In addition, the GI50 in assay [5] is 0.003 µM; in [6], 0.00296 µM; in assay [8], 0.00211 µM. Further, the TGI in [1] was greater than 1.59 µM; in [9] it was 6.17 µM; in assay [10] it was greater than 14.3 µM; in assay [3], 0.797 µM; in assay [4], greater than 14.3 µM; in assay [5], 0.498 µM. Also, the TGI is 1.26 µM in assay [6] and 3.49 µM in assay [8].
For the compound `O=C1C=C(c2c(O)ccc3ccccc23)c2cc(O)ccc2C1=O`, the TGI in assay [1] stood at 44.1 µM; in assay [9], 40.1 µM; in assay [10], 38.2 µM; in [4], 14.2 µM; in assay [5], 29.7 µM; in assay [6], 31.5 µM. In addition, the total growth inhibition concentration (TGI) in [7] was 29.1 µM; in [8], 42.9 µM.
For the compound `CC(=O)N/C(=C\c1ccccc1/C=C(\NC(C)=O)c1nc2cc(C)c(C)cc2[nH]1)c1nc2cc(C)c(C)cc2[nH]1`, the concentration for total growth inhibition (TGI) in assay [1] was greater than 100 µM; in assay [9], 78.1 µM; in assay [10], 32.5 µM; in [4], 31.9 µM; in [5], 94.9 µM; in assay [6], greater than 100 µM. The total growth inhibition concentration (TGI) in assay [8] is greater than 100 µM.
In the case of `O=Cc1cc2c(cc1-c1cc3c(cc1C=O)OCO3)OCO2`, the concentration for total growth inhibition (TGI) in assay [1], in assay [9], in [10], in assay [4], in [5] and in assay [6] was greater than 100 µM in each case. Besides, the TGI in [7] turned out to be 94.1 µM; in [8], 71 µM.
For `CC[C@@H]1NC(C(=O)OC)Cc2c1[nH]c1ccccc21` (stereo partly drawn), the TGI in assay [1], in [9], in [10], in assay [4], in assay [5] and in assay [6] was greater than 100 µM in each case. The compound also gave a concentration for total growth inhibition (TGI) in assay [8] greater than 100 µM.
With `CCOC(=O)Cc1csc(Nc2ccccc2[N+](=O)[O-])n1`, the total growth inhibition concentration (TGI) in assay [1], in assay [9], in assay [10], in [4], in assay [5] and in assay [6] was greater than 100 µM each time. Further, the TGI in assay [7] was greater than 100 µM; in assay [8] it was 61.3 µM.
As for `O=C1c2cccc3cccc(c23)C(=O)N1CCN(CCO)CCO`, the TGI was 40.1 µM in assay [1]; 90.9 µM in assay [10]; 37.5 µM in assay [4]; 74.8 µM in assay [5]; greater than 100 µM in [6]; 92.2 µM in [7]. In [8], this compound returned a concentration for total growth inhibition (TGI) of 44.9 µM.
`CCCCCCCCCCCC[N+]12CC[N+](CCN)(CC1)CC2`: the TGI in assay [1] was greater than 100 µM; in [9] it was greater than 100 µM; in assay [10], greater than 100 µM; in [4] it was greater than 100 µM; in [5] it was greater than 100 µM; in assay [6], 62.7 µM. Further, the total growth inhibition concentration (TGI) in [7] was 18.1 µM; in assay [8], 81.7 µM.
`c1ccc2c(c1)CCc1c(-c3ccncc3)n[nH]c1-2`: the total growth inhibition concentration (TGI) is 55.6 µM in assay [1]; 73.4 µM in assay [9]; 75.5 µM in [10]; 34.7 µM in assay [4]; 58.3 µM in [5]; 55.7 µM in assay [6]. The compound also registered a TGI in assay [8] of 73.8 µM.
With `C/C(=N\NC(N)=O)c1sc(-c2nc(C)c(/C(C)=N/NC(N)=O)s2)nc1C`, the TGI in [1], in assay [9], in [10], in assay [4], in assay [5] and in assay [6] was greater than 100 µM each time. Moreover, the results for the concentration for total growth inhibition (TGI) in [7] and in [8] were greater than 100 µM and 43.5 µM, respectively.
Turning to `CC12c3ccccc3C(OC=O)(c3ccccc31)C1(C)c3ccccc3C2(OC=O)c2ccccc21`, the TGI in [1], in assay [9], in assay [10], in assay [4], in assay [5] and in assay [6] was greater than 100 µM each time. The TGI in [7] is greater than 100 µM; in assay [8], 48.6 µM.
